From patent US12581252B2, “Substituted pyrrolo[3,4-b]pyridines as PI3K-α inhibitors” (Relay Therapeutics, Inc., priority 2020, dated 2026)

Columns and labels:
cells = details: Homo sapiens, MCF-10A, read-out: MCF10A IC50
H1047R PIK3CA enzyme = H1047R PIK3CA enzyme (Homo sapiens, UniProt P42336, H1047R); experiment: ADP-Glo Biochemical PIK3CA Kinase Assay
Chain of H1047R PIK3CA enzyme (P42336 whole entry H1047R): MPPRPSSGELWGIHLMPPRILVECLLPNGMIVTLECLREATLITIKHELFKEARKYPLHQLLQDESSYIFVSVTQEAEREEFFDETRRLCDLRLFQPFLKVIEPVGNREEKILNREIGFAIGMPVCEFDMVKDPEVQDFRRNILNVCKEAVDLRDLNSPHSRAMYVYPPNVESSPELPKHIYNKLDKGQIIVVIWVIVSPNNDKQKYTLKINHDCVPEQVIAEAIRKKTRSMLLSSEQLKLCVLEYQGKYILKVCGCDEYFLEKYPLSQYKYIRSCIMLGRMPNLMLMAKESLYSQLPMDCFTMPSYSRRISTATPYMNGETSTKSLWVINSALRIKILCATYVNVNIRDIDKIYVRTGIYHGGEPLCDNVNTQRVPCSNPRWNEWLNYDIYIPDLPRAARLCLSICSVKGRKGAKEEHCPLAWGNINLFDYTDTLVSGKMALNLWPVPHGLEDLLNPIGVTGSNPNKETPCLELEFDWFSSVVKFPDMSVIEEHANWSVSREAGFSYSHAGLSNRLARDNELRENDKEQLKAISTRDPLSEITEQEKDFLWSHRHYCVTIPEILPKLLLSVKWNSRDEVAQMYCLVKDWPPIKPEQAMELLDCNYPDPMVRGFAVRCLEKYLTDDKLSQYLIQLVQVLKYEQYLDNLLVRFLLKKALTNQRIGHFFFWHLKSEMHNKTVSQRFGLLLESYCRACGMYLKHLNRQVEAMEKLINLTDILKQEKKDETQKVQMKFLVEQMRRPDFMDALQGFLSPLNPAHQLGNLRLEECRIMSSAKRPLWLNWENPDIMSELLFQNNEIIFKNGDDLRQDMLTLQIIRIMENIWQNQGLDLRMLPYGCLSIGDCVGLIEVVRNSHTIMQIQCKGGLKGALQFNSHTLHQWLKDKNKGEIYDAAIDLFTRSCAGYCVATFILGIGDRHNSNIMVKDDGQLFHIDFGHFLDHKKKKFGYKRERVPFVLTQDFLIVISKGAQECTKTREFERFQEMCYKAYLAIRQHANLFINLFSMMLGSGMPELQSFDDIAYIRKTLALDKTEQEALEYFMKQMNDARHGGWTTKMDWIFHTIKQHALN
Chain of H1047R PIK3CA enzyme (P27986 whole entry partner): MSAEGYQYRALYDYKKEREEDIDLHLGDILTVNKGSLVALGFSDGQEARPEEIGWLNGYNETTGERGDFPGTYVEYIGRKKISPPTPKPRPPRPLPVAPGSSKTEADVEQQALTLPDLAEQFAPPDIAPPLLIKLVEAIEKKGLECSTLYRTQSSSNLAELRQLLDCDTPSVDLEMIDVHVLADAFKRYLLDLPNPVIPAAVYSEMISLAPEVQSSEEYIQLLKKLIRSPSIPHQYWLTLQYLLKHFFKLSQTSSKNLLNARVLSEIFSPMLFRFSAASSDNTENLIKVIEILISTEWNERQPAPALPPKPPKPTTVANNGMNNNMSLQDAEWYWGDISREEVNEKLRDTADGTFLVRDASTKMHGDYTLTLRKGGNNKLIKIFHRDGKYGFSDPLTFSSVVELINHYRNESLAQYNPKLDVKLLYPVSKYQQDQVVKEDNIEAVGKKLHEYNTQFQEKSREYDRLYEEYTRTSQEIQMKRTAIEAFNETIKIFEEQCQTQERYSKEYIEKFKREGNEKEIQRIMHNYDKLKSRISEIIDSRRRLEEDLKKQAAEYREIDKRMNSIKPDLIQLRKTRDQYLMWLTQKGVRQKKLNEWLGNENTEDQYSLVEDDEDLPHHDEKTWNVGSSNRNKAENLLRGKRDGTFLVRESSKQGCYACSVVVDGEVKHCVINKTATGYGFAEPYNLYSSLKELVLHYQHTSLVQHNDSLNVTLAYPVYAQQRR

| Structure (SMILES) | IC50 (cells) [µM] | IC50 (H1047R PIK3CA enzyme) [µM] |
| --- | --- | --- |
| O=C(Nc1cc(-c2cnc(N3CCOCC3)nc2)cc2c1C(c1cc(F)ccc1Cl)NC2=O)c1cc(F)cc(C(F)(F)F)c1 (centres unmarked) [Compound I-930] | 1 to 5 | ≤ 0.1 |
| COc1ncc(-c2cc(NC(=O)c3cc(F)cc(C(F)(F)F)c3)c3c(c2)C(=O)N[C@H]3c2cc(F)ccc2Cl)cn1 [Compound I-882] | < 1 | ≤ 0.1 |
| Cc1ccccc1C1NC(=O)c2cccc(NC(=O)c3coc4ccc(F)cc34)c21 (centres unmarked) [Compound I-19] | 1 to 5 | 0.5 to 1 |
| N#CCOc1cc(NC(=O)c2cc(F)cc(C(F)(F)F)c2)c2c(c1)C(=O)NC2c1cc(F)ccc1Cl (centres unmarked) [Compound I-1160] | < 1 | ≤ 0.1 |
| CC(C)(O)Cc1cc(NC(=O)c2cc(F)cc(Cl)c2)c2c(c1)C(=O)N[C@H]2c1cc(F)ccc1Cl [Compound I-1080] | < 1 | ≤ 0.1 |
| O=C(Nc1cc(-c2cnn(C3CNC3)c2)cc2c1C(c1cc(F)ccc1Cl)NC2=O)c1cc(F)cc(C(F)(F)F)c1 (centres unmarked) [Compound I-903] | 10 to 36 | ≤ 0.1 |
| Cn1cc(Nc2cc(NC(=O)c3cc(F)cc(C(F)(F)F)c3)c3c(c2)C(=O)NC3c2cc(F)ccc2Cl)nn1 (centres unmarked) [Compound I-965] | < 1 | ≤ 0.1 |
| O=C1N[C@H](c2cc(F)ccc2Cl)c2c(NC(=O)N3C[C@H](C(F)F)c4ccccc43)cccc21 (single isomer, unassigned) [Compound I-2333] | 1 to 5 | ≤ 0.1 |
| O=C1N[C@@H](c2cc(F)ccc2Cl)c2c(NC(=O)N3C[C@@](O)(C(F)F)c4ccccc43)cccc21 (single isomer, unassigned) [Compound I-2487] | < 1 | ≤ 0.1 |
| O=C(Nc1cc(-c2ccc(=O)n(C3CC3)c2)nc2c1[C@H](c1cc(F)ccc1Cl)NC2=O)c1cc(F)cc(C(F)(F)F)c1 [Compound I-747] | < 1 | ≤ 0.1 |
| O=C1NC(c2cc(F)ccc2Cl)c2c(NC(=O)N3CC(O)(C(F)F)c4cc(F)ccc43)cc(F)cc21 (centres unmarked) [Compound I-2622] | 1 to 5 | ≤ 0.1 |
| Cc1nocc1Nc1cc(NC(=O)c2cc(F)cc(C(F)(F)F)c2)c2c(c1)C(=O)NC2c1cc(F)ccc1Cl (centres unmarked) [Compound I-856] | < 1 | ≤ 0.1 |
| O=C(Nc1cc(-c2cccc3nccn23)cc2c1C(c1cc(F)ccc1Cl)NC2=O)c1cc(F)cc(C(F)(F)F)c1 (centres unmarked) [Compound I-1013] | < 1 | ≤ 0.1 |
| NCc1cc(NC(=O)N2CC(O)(C(F)(F)F)c3cc(F)ccc32)c2c(c1)C(=O)NC2c1cc(F)ccc1Cl (centres unmarked) [Compound I-2568] | 10 to 36 | ≤ 0.1 |
| O=C1NC(c2cc(F)ccc2Cl)c2c(Nc3nccc4c(C(F)(F)F)cc(F)cc34)cc(Br)cc21 (centres unmarked) [Compound I-978] | < 1 | ≤ 0.1 |
| O=C(Nc1cc(-c2cccnc2)cc2c1[C@@H](c1cc(F)ccc1Cl)NC2=O)c1cc(F)cc(C(F)(F)F)c1 (stereo in doubt) [Compound I-1009] | < 1 | ≤ 0.1 |
| N#Cc1cc(NC(=O)N2CC(O)(C(F)(F)F)c3ccccc32)c2c(c1)C(=O)NC2c1cc(F)ccc1Cl (centres unmarked) [Compound I-2473] | < 1 | ≤ 0.1 |
| Cn1ccc(-c2cc(NC(=O)c3cc(F)cc(C(F)(F)F)c3)c3c(c2)C(=O)N[C@@H]3c2cc(F)ccc2Cl)cc1=O (stereo in doubt) [Compound I-1002] | < 1 | ≤ 0.1 |
| Cc1ccccc1C1NC(=O)c2cc(CNC(=O)OC(C)(C)C)cc(NC(=O)c3csc4ccccc34)c21 (centres unmarked) [Compound I-87] | 1 to 5 | ≤ 0.1 |
| O=C(Nc1cc(-c2ccc3ncnn3c2)cc2c1[C@@H](c1cc(F)c(F)cc1Cl)NC2=O)c1cc(F)cc(C(F)(F)F)c1 [Compound I-1061] | < 1 | ≤ 0.1 |
| O=C(Nc1cc(-c2ccc3c(c2)OCCO3)cc2c1C(c1cc(F)ccc1Cl)NC2=O)c1cc(F)cc(C(F)(F)F)c1 (centres unmarked) [Compound I-932] | 1 to 5 | 0.1 to 0.5 |
| O=C1N[C@H](c2cc(F)ccc2Cl)c2c(NC(=O)N3C[C@@](O)(C(F)(F)F)c4cc(F)ccc43)cc(-n3nccn3)cc21 (single isomer, unassigned) [Compound I-2569] | < 1 | ≤ 0.1 |
| O=C(Nc1cc(Nc2nnco2)cc2c1C(c1cc(F)ccc1Cl)NC2=O)c1cc(F)cc(C(F)(F)F)c1 (centres unmarked) [Compound I-1099] | < 1 | ≤ 0.1 |
| O=C1N[C@@H](c2cc(F)ccc2Cl)c2c(NC(=O)N3C[C@](O)(C(F)F)c4cc(F)ccc43)cc(F)cc21 (single isomer, unassigned) [Compound I-2635] | < 1 | ≤ 0.1 |
| O=C(Nc1cc(-c2cnoc2)cc2c1C(c1cc(F)ccc1Cl)NC2=O)c1cc(F)cc(C(F)(F)F)c1 (centres unmarked) [Compound I-935] | < 1 | ≤ 0.1 |
| Cn1ncnc1Nc1cc(NC(=O)c2cc(F)cc(C(F)(F)F)c2)c2c(c1)C(=O)NC2c1cc(F)ccc1Cl (centres unmarked) [Compound I-974] | < 1 | ≤ 0.1 |

| Structure (SMILES) | IC50 (cells) [µM] | IC50 (H1047R PIK3CA enzyme) [µM] |
| --- | --- | --- |
| Cn1cnc(Nc2cc(NC(=O)c3cc(F)cc(C(F)(F)F)c3)c3c(c2)C(=O)NC3c2cc(F)ccc2Cl)n1 (centres unmarked) [Compound I-976] | < 1 | ≤ 0.1 |
| N#CCc1ccc(NC(=O)N2C[C@](O)(C(F)(F)F)c3cc(F)ccc32)c2c1C(=O)N[C@H]2c1cc(F)ccc1Cl (single isomer, unassigned) [Compound I-2614] | < 1 | ≤ 0.1 |
| O=C1NC(c2cc(F)ccc2Cl)c2c(NC(=O)N3CC(O)(C(F)F)c4cc(F)ccc43)cccc21 (mixture of isomers) [Compound I-2488] | 1 to 5 | ≤ 0.1 |
| O=C(Nc1cc(-c2c[nH]nn2)cc2c1C(c1cc(F)ccc1Cl)NC2=O)c1cc(F)cc(C(F)(F)F)c1 (centres unmarked) [Compound I-840] | < 1 | ≤ 0.1 |
| O=C1NC(c2cc(F)ccc2Cl)c2c(NC(=O)N3CCc4cc(F)ccc43)cc(-c3cnn(C(F)F)c3)cc21 (centres unmarked) [Compound I-2300] | 1 to 5 | ≤ 0.1 |
| N#CC1(COc2cc(NC(=O)N3CC(O)c4cc(F)ccc43)c3c(c2)C(=O)NC3c2cc(F)ccc2Cl)CC1 (mixture of isomers) [Compound I-2489] | 5 to 10 | ≤ 0.1 |
| O=C(Nc1cc(CC2(O)CNC2)cc2c1C(c1cc(F)ccc1Cl)NC2=O)c1cc(F)cc(C(F)(F)F)c1 (centres unmarked) [Compound I-926] | 10 to 36 | ≤ 0.1 |
| N#Cc1c(N)cc(NC(=O)c2cc(F)cc(C(F)(F)F)c2)c2c1C(=O)NC2c1cc(F)ccc1Cl (centres unmarked) [Compound I-2223] | < 1 | ≤ 0.1 |
| O=C1N[C@H](c2cc(F)ccc2Cl)c2c(NC(=O)N3C[C@@](O)(C(F)(F)F)c4cc(F)ccc43)cc(Cl)nc21 (single isomer, unassigned) [Compound I-2703] | < 1 | ≤ 0.1 |
| O=C(Nc1cc(-c2ccncc2F)cc2c1C(c1cc(F)ccc1Cl)NC2=O)c1cc(F)cc(C(F)(F)F)c1 (centres unmarked) [Compound I-887] | < 1 | ≤ 0.1 |
| Cn1nccc1-c1cc(NC(=O)c2cc(F)cc(C(F)(F)F)c2)c2c(c1)C(=O)NC2c1cc(F)ccc1Cl (centres unmarked) [Compound I-906] | < 1 | ≤ 0.1 |
| Cn1cccc(-c2cc(NC(=O)c3cc(F)cc(C(F)(F)F)c3)c3c(c2)C(=O)NC3c2cc(F)ccc2Cl)c1=O (centres unmarked) [Compound I-901] | 1 to 5 | 0.1 to 0.5 |
| O=C(Nc1cc(-c2cnn3cccnc23)cc2c1C(c1cc(F)ccc1Cl)NC2=O)c1cc(F)cc(C(F)(F)F)c1 (centres unmarked) [Compound I-1046] | < 1 | ≤ 0.1 |
| CS(=N)(=O)Cc1cc(NC(=O)c2cc(F)cc(C(F)(F)F)c2)c2c(c1)C(=O)NC2c1cc(F)ccc1Cl (centres unmarked) [Compound I-1018] | < 1 | ≤ 0.1 |
| O=C1N[C@@H](c2cc(F)ccc2Cl)c2c(NC(=O)N3C[C@](O)(C(F)(F)F)c4cc(F)ccc43)ccc(-n3cccn3)c21 (single isomer, unassigned) [Compound I-2497] | < 1 | ≤ 0.1 |
| Cn1cc2cc(-c3cc(NC(=O)c4cc(F)cc(C(F)(F)F)c4)c4c(c3)C(=O)NC4c3cc(F)ccc3Cl)ccc2n1 (centres unmarked) [Compound I-1029] | < 1 | ≤ 0.1 |
| N#CC1(CNc2cc(NC(=O)c3cc(F)cc(C(F)(F)F)c3)c3c(c2)C(=O)N[C@H]3c2cc(F)ccc2Cl)CC1 [Compound I-868] | < 1 | ≤ 0.1 |
| O=C1N[C@@H](c2cc(F)ccc2Cl)c2c(NC(=O)N3C[C@H](O)c4c(F)cccc43)cccc21 (single isomer, unassigned) [Compound I-2142] | < 1 | ≤ 0.1 |
| O=C1N[C@@H](c2cc(F)ccc2Cl)c2c(NC(=O)N3C[C@](O)(C(F)(F)F)c4cc(F)ccc43)ccc(-n3ccnn3)c21 (single isomer, unassigned) [Compound I-2520] | < 1 | ≤ 0.1 |
| Nc1cc(NC(=O)c2cc(F)cc(C(F)(F)F)c2)c2c(c1)C(=O)NC2c1cc(F)ccc1Cl (centres unmarked) [Compound I-125] | < 1 | ≤ 0.1 |
| O=C1NC(c2cc(F)ccc2Cl)c2c(NC(=O)c3nsc4ccccc34)cccc21 (centres unmarked) [Compound I-83] | < 1 | ≤ 0.1 |
| N#CCCc1cc(NC(=O)N2C[C@H](O)c3cc(F)ccc32)c2c(c1)C(=O)N[C@H]2c1cc(F)ccc1Cl (single isomer, unassigned) [Compound I-2346] | 1 to 5 | ≤ 0.1 |
| O=C(Nc1cc(-c2ccncc2F)cc2c1[C@@H](c1cc(F)ccc1Cl)NC2=O)c1cc(F)cc(C(F)(F)F)c1 (stereo in doubt) [Compound I-986] | < 1 | ≤ 0.1 |
| O=C(Nc1cc(-c2cccc3nonc23)cc2c1C(c1cc(F)ccc1Cl)NC2=O)c1cc(F)cc(C(F)(F)F)c1 (centres unmarked) [Compound I-1031] | < 1 | ≤ 0.1 |
| O=C1NC(c2cc(F)ccc2C(F)F)c2c(NC(=O)N3CC(O)c4cc(F)ccc43)cc(Br)cc21 (centres unmarked) [Compound I-2257] | 1 to 5 | ≤ 0.1 |
| O=C(Nc1cc(-c2cc3ncccc3[nH]2)cc2c1C(c1cc(F)ccc1Cl)NC2=O)c1cc(F)cc(C(F)(F)F)c1 (centres unmarked) [Compound I-970] | < 1 | ≤ 0.1 |
